In patent US9764059B2, “Chlorhexidine gluconate containing solvent adhesive” (Avery Dennison Corporation, priority 2011, dated 2017):

How the values were obtained:
[1] = Solubility; format: physicochemical
[2] = cited from earlier work

In the case of `N=C(NCCCCCCNC(=N)NC(=N)Nc1ccc(Cl)cc1)NC(=N)Nc1ccc(Cl)cc1` [Chlorhexidine base], the solubility in water [1] is reported as “low solubility in water”.

For `N=C(NCCCCCCNC(=N)NC(=N)Nc1ccc(Cl)cc1)NC(=N)Nc1ccc(Cl)cc1.O=C(O)[C@H](O)[C@@H](O)[C@H](O)[C@H](O)CO.O=C(O)[C@H](O)[C@@H](O)[C@H](O)[C@H](O)CO` [chlorhexidine gluconate], the solubility in solvents [2] is given as “only soluble in methanol and acetone”.
